Results reported in patent US20120321594A1, “METHODS OF CONTROLLING AXON OR DENDRITE DEVELOPMENT OF NEURONAL CELLS” (NEW YORK UNIVERSITY, priority 2011, published 2012).
Read-outs that look alike come from different tables or passages of the source.

Columns and labels:
[1] = tested on: MAP2-positive dendrites of Xenopus spinal cord; assay: Whole-mount MAP2 immunohistochemistry of spinal cords (dendrite identity in vivo); set-up: species or system Xenopus laevis; conditions: for MAP2-IR in the MO-injected side of spinal cords: stage 42, compared to the uninjected side
xCav2.3α1E = assay: Whole-mount immunostaining of xCav2.3α1E expression in spinal cords; type: in vivo, Xenopus laevis
Cav2.3 channels = assay: Whole-cell Ca^2+ currents at growth cones of cultured xSCINs, isolated Cav2.3 (R-type) currents; type: cell-based, Xenopus laevis
Experimental: To test the conversion of the identities of individual neurites and for growth cone electrophysiology, 2,000 U/ml Sema3A (in micropipettes) was applied as a gradient. […] All pharmacological agents were bath-applied 30 min before experiments were performed unless otherwise indicated.

Cav2.3α1E = Cav2.3α1E immunoreactivity in cultured xSCINs; type: cell-based, Xenopus laevis; conditions: pre-treatment with the agent
Experimental: Sema3A and +CHX, respectively, indicate treatment with Sema3A (2 U·ml−1) for 10 min or with Sema3A (2 U·ml−1) for 10 min after a one-minute pre-administration of cycloheximide (25 μM). FIG. 16B is a graph showing a summary of Cav2.3α1E immunoreactivity (IR, AU) in each experimental condition. […] FIGS. 16D and 16E are immunofluorescence images (FIG. 16D) and summaries (FIG. 16E) of Cav2.3α1E IR in Xenopus spinal cords either without (Control) or with (+CHX) local injection of cycloheximide (2.5 mM). Cav2.3α1E IR was normalized against that of control animals. For uninjected controls, the right sides of spinal cords were normalized against the left sides. Scale bars, 20 μm; data are mean±s.e.m; (n) =number of cultures (150 to 200 neurons, FIG. 16B) spinal cords examined (FIG. 16E). Significant difference from the control is indicated (**p<0.01). […]

cultured xSCINs = assay: Neurite identity (tau-1 / MAP2 immunocytochemistry) of cultured xSCINs; type: cell-based, Xenopus laevis
Experimental: Capped messenger RNAs encoding NP1-0111, hSema3A, mCav2.3α1E, and green fluorescent protein (GFP) were synthesized with mMESSAGE mMACHINE (Ambion Inc.) and purified on NucAway™ Spin Columns (Ambion Inc.) as described by the manufacturer. […] Each blastomere was injected with 4 to 8 nl of 0.5 μg·ul^−1 NPI-0111, 0.5 μg·μl^−1 hSema3A, or 0.5 μg·μl^−mCav2.3α1E mRNA and 0.25 μg·μl^−1 GFP mRNA as an expression indicator. Primary Xenopus spinal neurons derived from developmental stage 26 embryos were cultured at 23° C.-25° C. for 16-20 hours and used for growth cone electrophysiology (FIGS. 2A-2E; FIGS. 3A-3C) and immunocytochemistry (FIGS. 4A and 4B). To examine the neurite identity and expression of functional AMPA receptor channels (FIGS. 5A-5C), cells were plated on cover glasses that had been coated for four to six hours each with poly-L-lysine (100 μg·ml^−1) and laminin (80 μg·ml^−1) and incubated for three to four hours at 23° C.-25° C. prior to use.
Sema3A (2 U·ml^−1) and netrin-1 (5 ng·ml^−1) were prepared as described (Nishiyama et al., “Membrane Potential Shifts Caused by Diffusible Guidance Signals Direct Growth-Cone Turning,” Nat. Neurosci. 11:762-771 (2008); Togashi et al., “Cyclic GMP-Gated CNG Channels Function in Sema3A-Induced Growth Cone Repulsion,” Neuron 58:694-707 (2008); Goshima, “A Novel Action of Collapsin: Collapsin-1 Increases Antero- and Retrograde Axoplasmic Transport Independently of Growth Cone Collapse,” J. Neurobiol. 33:316-328 (1997); Hong et al., “Calcium Signalling in the Guidance of Nerve Growth by Netrin-1,” Nature 403:93-98 (2000); Nishiyama et al., “Cyclic AMP/GMP-Dependent Modulation of Ca^2+ Channels Sets the Polarity of Nerve Growth-Cone Turning,” Nature 423:990-995 (2003); Hong et al., “A Ligand-Gated Association Between Cytoplasmic Domains of UNC5 and DCC Family Receptors Converts Netrin-Induced Growth Cone Attraction to Repulsion,” Cell 97:927-941 (1999), which are hereby incorporated by reference in their entirety). To test the conversion of the identities of individual neurites and for growth cone electrophysiology, 2,000 U/ml Sema3A (in micropipettes) was applied as a gradient. The biological activity of Sema3A (U·ml^−1) was evaluated using a collapse assay of chick DRG neurons (Goshima, “A Novel Action of Collapsin: Collapsin-1 Increases Antero- and Retrograde Axoplasmic Transport Independently of Growth Cone Collapse,” J. Neurobiol. 33:316-328 (1997), which is hereby incorporated by reference in its entirety). All pharmacological agents were bath-applied 30 min before experiments were performed unless otherwise indicated. Agonist and antagonists were purchased from Calbiochem, Peptide Institute, Sigma, and Tocris.

[2] = tested on: tau-1-positive axons of Xenopus spinal cord; set-up: species or system Xenopus laevis; conditions: in vivo
[3] = tested on: MAP2 to tau-1 ratio in Xenopus spinal cords; set-up: species or system Xenopus laevis; conditions: in vivo
[4] = tested on: putative CINs of Xenopus spinal cord; assay: Imaging of individual spinal neurons (Texas Red dextran) in MO-injected spinal cords; type: in vivo, Xenopus laevis; conditions: stage 42 tadpole spinal cords
xSema3A = assay: Whole-mount immunostaining of xSema3A expression in spinal cords; conditions: stage 30-32 spinal cords
[5] = injected into hindbrain and spinal cord of stage 30-32 tailbuds
[6] = xSema3A-A-MO in one side of spinal cords
[7] = xSCINs cultured on laminin, treated for three hours

Nc1nc2c(nc(Br)n2[C@@H]2O[C@@H]3COP(=O)(O)O[C@H]3[C@H]2O)c(=O)[nH]1 [8-Br-cGMP]
MAP2-IR / dendrite formation after local administration [1, 5]: enhanced
rescue of dendrites in the absence of xCav2.3 ([1]; local administration, xCav2.3α1E-A-MO (FIG. 15N)): failed to rescue dendrites
expression of xCav2.3α1E after local administration (xCav2.3α1E; [5]): enhanced
expression of xCav2.3α1E after local administration in the absence of Sema3A (xCav2.3α1E; [6]): induced the expression of xCav2

O=c1onc2cnc3ccccc3n12 [ODQ, 1H-[1,2,4]oxadiazolo[4,3-a]quinoxalin-1-one]
Rp-8-pCPT-cGMPS-induced Cav2.3 currents in the presence of the agent (Cav2.3 channels; agent as pretreatment / in the bath): not affected
Sema3A-induced Cav2.3 currents in the presence of the agent (Cav2.3 channels; gradient of Sema3A on xSCIN growth cones, agent added): prevented
MAP2-IR / dendrite formation after local administration [1, 5]: abolished
appearance of dendrites in the presence of the xCav2.3 ([1]; local administration, A-MO in one side of spinal cords (FIGS. 15L, 15M)): prevented the appearance of dendrites
expression of xCav2.3α1E after local administration (xCav2.3α1E; [5]): abolished
expression of xCav2.3α1E after local administration in the absence of Sema3A (xCav2.3α1E; [6]): significant reduction

Nc1nc2c(nc(Sc3ccc(Cl)cc3)n2[C@@H]2O[C@@H]3CO[P@@](=O)(S)O[C@H]3[C@H]2O)c(=O)[nH]1 [Rp-8-pCPT-cGMPS]
Cav2.3 currents induced by a gradient of the agent alone (Cav2.3 channels): induced Cav2.3 currents
Sema3A-induced Cav2.3 currents in the presence of the agent (Cav2.3 channels): pre-empted
MAP2-IR / dendrite formation after local administration ([1]; in vivo): drastically reduced
appearance of dendrites in the presence of the xCav2.3 ([1]; in vivo): prevented the appearance of dendrites
expression of xCav2.3α1E after local administration (xCav2.3α1E; in vivo): significant increase
expression of xCav2.3α1E after local administration in the absence of Sema3A (xCav2.3α1E; in vivo): induced the expression of xCav2

C[C@@H]1C[C@@H]([C@H](O)CC2CC(=O)NC(=O)C2)C(=O)[C@@H](C)C1 [cycloheximide]
Sema3A-induced expression of Cav2.3 in vitro after pre-treatment (Cav2.3α1E): eliminated
Rp-8-pCPT-cGMPS-induced Cav2.3 currents in the presence of the agent (Cav2.3 channels): eliminated
expression of xCav2.3α1E after local administration (xCav2.3α1E; in vivo): eliminated

COCCOC(=O)C1=C(C)NC(C)=C(C(=O)OC(C)C)C1c1cccc([N+](=O)[O-])c1 (centres unmarked) [nimodipine]
MAP2-IR / dendrite formation after local administration ([1]; in vivo): no significant effect

Netrin-1: another secreted factor that effects axon initiation in C. elegans
MAP2-IR (cultured xSCINs; [7]): no significant effect
tau-1 immunoreactivity (IR) (cultured xSCINs; [7]): no significant effect

SNP-1: the soluble Npn-1 ectodomain peptide that sequesters Sema3A
Sema3A-induced conversion of tau-1-positive axons to MAP2-positive dendrites in the presence of the agent (cultured xSCINs; agent bath-applied with Sema3A): prevented

SNX-482 (GVDKAGCRYMFGGCSVNDDCCPRLGCHSLFSYCAWDLTFSD)
Sema3A-induced conversion of tau-1-positive axons to MAP2-positive dendrites in the presence of the agent (cultured xSCINs): prevented
Sema3A-induced Cav2.3 currents in the presence of the agent (Cav2.3 channels): abolished
MAP2-positive dendrites after local administration, 45 μM ([1]; in vivo): eliminated almost all dendrites
MAP2-positive dendrites after local administration, lower doses ([1]; in vivo): significant reductions
tau-1-IR after local administration into the spinal cord [2]: significant increase
ratio of MAP2 to tau-1 in total protein extracted from spinal cords [3]: significantly lower

xCav2.3α1E-A-MO: antisense morpholino oligonucleotide against xCav2.3α1E mRNA (SEQ ID NO: 7) (antisense CTATGTGATATGATTATTTATGACC; all phosphorodiamidate morpholino (PMO))
neurites of individual putative CINs in the MO-treated side [4]: multiple axon-like neurites
MAP2-IR in the MO-injected side of spinal cords [1]: significantly reduced
tau-1-IR in the MO-injected side of the spinal cords [2]: significant increase

xSema3A-A-MO: antisense morpholino oligonucleotide against xSema3A mRNA (SEQ ID NO: 8) (antisense ATGCAATCCAGGTCAGAGAGCCCAT; all phosphorodiamidate morpholino (PMO))
expression of xSema3A in the MO-injected side (xSema3A): reduced significantly
MAP2-IR in the MO-injected side of spinal cords [1]: significantly reduced
expression of xCav2.3α1E in the MO-injected side (xCav2.3α1E; stage 34): reduced markedly

ω-conotoxin GVIA
Sema3A-induced conversion of tau-1-positive axons to MAP2-positive dendrites in the presence of the agent (cultured xSCINs): neither L-types (nimodipine) nor N-types (ω-conotoxin GVIA) prevented the conversion
MAP2-IR / dendrite formation after local administration ([1]; in vivo): no significant effect
tau-1-IR after local administration into the spinal cord [2]: neither nimodipine (FIG. 6F and bottom panel, labeled f; FIG. 6G) nor w-conotoxin GVIA (FIG. 6G) had significant effect
